In the NIST ThermoML archive (doi:10.1021/je801006q):

Assays:
[1] = 101.33 kPa, Liquid
[2] = excess molar enthalpy (molar enthalpy of mixing); xn = mol fraction of the nth substance listed; conditions: 298.15 K, 101 kPa, Liquid, Calvet calorimetry
[3] = xn = mol fraction of the nth substance listed; conditions: 101 kPa, Liquid

CC(C)CO [2-methyl-1-propanol]
[1]
Conditions	mass density [kg/m3]	viscosity [mPa·s]
293.15 K	801.28	3.943
298.15 K	797.74	3.332
303.15 K	794.32	2.884

CC(C)(C)O [2-methylpropan-2-ol]
[1]
Conditions	mass density [kg/m3]	viscosity [mPa·s]
293.15 K	795.68	5.486
298.15 K	780.65	4.436
303.15 K	775.76	3.378

O=C1CCCN1 [2-pyrrolidinone]
[1]
Conditions	mass density [kg/m3]	viscosity [mPa·s]
293.15 K	1109.84	15.84
298.15 K	1106.98	13.07
303.15 K	1103.38	10.69

O=C1CCCN1 [2-pyrrolidinone] + CC(C)(C)O
[2]
Conditions	excess molar enthalpy [kcal/mol]
x1 = 0.0498	0.0345
x1 = 0.1189	0.0582
x1 = 0.1932	0.077
x1 = 0.2551	0.0902
x1 = 0.3309	0.102
x1 = 0.3946	0.106
x1 = 0.4411	0.106
x1 = 0.4943	0.103
x1 = 0.5766	0.0947
x1 = 0.6806	0.081
x1 = 0.7422	0.0687
x1 = 0.8435	0.0413
x1 = 0.9312	0.0257

[3]
Conditions	mass density, 293.15 K [kg/m3]	mass density, 298.15 K [kg/m3]	mass density, 303.15 K [kg/m3]	viscosity, 293.15 K [mPa·s]	viscosity, 298.15 K [mPa·s]	viscosity, 303.15 K [mPa·s]
x1 = 0.0786	806.96	802	797.13	4.778	3.771	3.586
x1 = 0.1832	836.27	831.45	826.69	3.931	3.23	2.732
x1 = 0.2489	855.32	850.57	845.86	3.399	2.698	2.053
x1 = 0.3105	873.59	868.94	864.29	2.824	2.109	1.481
x1 = 0.3875	897.03	892.52	887.93	2.167	1.547	0.786
x1 = 0.4556	918.3	913.93	909.39	1.857	1.333	0.464
x1 = 0.5003	932.55	928.28	923.8	1.665	–	–
x1 = 0.5734	956.36	952.27	947.87	1.87	1.496	–
x1 = 0.6544	983.51	979.59	975.32	2.478	2.049	1.049
x1 = 0.7236	1007.36	1003.63	999.49	3.648	3.252	2.12
x1 = 0.7995	1034.28	1030.79	1026.74	5.671	5.011	3.681
x1 = 0.8672	1059.06	1055.73	1051.83	8.035	7.463	5.849
x1 = 0.9237	1080.26	1077.13	1073.37	10.94	9.609	8.042
x1 = 0.9823	1102.87	1099.95	1096.31	14.34	12.12	9.894

O=C1CCCN1 [2-pyrrolidinone] + CC(C)CO
[2]
Conditions	excess molar enthalpy [kcal/mol]
x1 = 0.0522	0.029
x1 = 0.1222	0.0512
x1 = 0.1812	0.065
x1 = 0.2451	0.0714
x1 = 0.3296	0.0748
x1 = 0.4043	0.074
x1 = 0.4535	0.0711
x1 = 0.5022	0.0663
x1 = 0.5912	0.0582
x1 = 0.6807	0.0489
x1 = 0.7402	0.043
x1 = 0.8466	0.0286
x1 = 0.9233	0.0171

[3]
Conditions	mass density, 293.15 K [kg/m3]	mass density, 298.15 K [kg/m3]	mass density, 303.15 K [kg/m3]	viscosity, 293.15 K [mPa·s]	viscosity, 298.15 K [mPa·s]	viscosity, 303.15 K [mPa·s]
x1 = 0.0889	824.77	821.28	817.86	3.624	3.033	2.921
x1 = 0.1776	848.94	845.47	842.04	3.381	2.802	2.596
x1 = 0.2378	865.74	862.31	858.86	2.987	2.57	2.409
x1 = 0.3009	883.75	880.34	876.86	2.87	2.483	2.167
x1 = 0.3978	912.12	908.8	905.28	2.787	2.487	1.789
x1 = 0.4456	926.49	923.19	919.66	2.833	2.483	1.75
x1 = 0.5106	946.36	943.11	939.59	3.145	2.736	1.783
x1 = 0.5844	969.46	966.29	962.76	3.686	3.262	2.118
x1 = 0.6489	990.11	987	983.49	4.428	3.966	2.645
x1 = 0.7126	1010.87	1007.83	1004.4	5.569	4.938	3.369
x1 = 0.7943	1038.14	1035.18	1031.8	7.61	6.753	4.876
x1 = 0.8564	1059.36	1056.43	1053.04	9.46	8.552	6.388
x1 = 0.9126	1078.91	1075.98	1072.53	11.57	10.27	8.021
x1 = 0.9753	1100.98	1098.14	1094.58	14.55	12.91	10.15
